# Test results published in PubChem BioAssay AID588407 (The Scripps Research Institute Molecular Screening Center, 2011).
# Several values for one entry are separate records, joined by “and”; a condition that tells them apart may be missing. Equal values may be shown once. Activity calls are given as the source filed them. No rule for the calls is given here.
# Molecular target: Mu-type opioid receptor (Homo sapiens) + Delta-type opioid receptor (Homo sapiens) (UniProt P35372+P41143)
# Experiment: agonists of MOR-DOR heterodimerization, dose response, cell-based, luminescence (AID 588407);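 also: potency of agonists raising the heterodimer signal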
# Settings: cells
# Mu-type opioid receptor (Homo sapiens) + Delta-type opioid receptor (Homo sapiens), sequence (P35372 whole entry, looked up): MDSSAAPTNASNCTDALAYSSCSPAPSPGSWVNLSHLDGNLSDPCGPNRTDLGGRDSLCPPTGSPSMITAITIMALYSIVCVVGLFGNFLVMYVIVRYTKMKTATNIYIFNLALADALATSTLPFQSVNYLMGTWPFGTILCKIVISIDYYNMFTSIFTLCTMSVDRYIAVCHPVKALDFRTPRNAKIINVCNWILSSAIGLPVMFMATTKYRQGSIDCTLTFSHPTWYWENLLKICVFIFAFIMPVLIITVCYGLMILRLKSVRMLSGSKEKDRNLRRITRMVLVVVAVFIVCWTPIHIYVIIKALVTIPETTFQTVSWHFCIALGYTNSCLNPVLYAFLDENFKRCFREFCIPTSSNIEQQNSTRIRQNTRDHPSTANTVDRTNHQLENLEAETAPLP
# Mu-type opioid receptor (Homo sapiens) + Delta-type opioid receptor (Homo sapiens), sequence (P41143 whole entry, looked up): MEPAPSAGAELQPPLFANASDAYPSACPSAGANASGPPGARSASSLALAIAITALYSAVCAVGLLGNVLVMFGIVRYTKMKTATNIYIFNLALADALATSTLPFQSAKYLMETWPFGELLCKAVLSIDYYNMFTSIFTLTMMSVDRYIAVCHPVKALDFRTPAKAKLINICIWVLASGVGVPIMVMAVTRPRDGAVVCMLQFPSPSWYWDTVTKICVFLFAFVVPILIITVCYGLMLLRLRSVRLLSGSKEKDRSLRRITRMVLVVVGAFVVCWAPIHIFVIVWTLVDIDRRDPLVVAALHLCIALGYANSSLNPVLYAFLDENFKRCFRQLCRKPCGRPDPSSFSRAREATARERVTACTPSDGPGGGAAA
row,Compound,EC50
1,COC(=O)C1=C(C)N(CCCC(=O)O)C(=O)NC1c1ccccc1OS(=O)(=O)c1ccccc1[N+](=O)[O-] (configuration not stated),8.75 µM
2,CN(C)C(CNC(C(=O)Nc1ccc([N+](=O)[O-])cc1Br)c1ccccc1)c1ccccc1 (configuration not stated),9.79 µM
3,Clc1ccc2c(N/N=C/c3ccccc3Br)ccnc2c1,9.73 µM
4,CC1(NC(=O)CC(c2ccccc2)(c2ccccc2)c2ccccc2)CCN(CCCc2ccccc2)C1=O (configuration not stated),0.895 µM
5,CC(=O)C1CCC2C3CC=C4CC(SC(=N)N)CCC4(C)C3CCC12C (configuration not stated),9.58 µM
6,CN1CCN(Cc2nc3ccccc3c(=O)n2Cc2nc(-c3ccc4ccccc4c3)cs2)CC1,> 10.3 µM (inactive)
7,O=C1C=C(c2c(O)ccc3ccccc23)c2ccccc2C1=O,9.82 µM
8,Cc1ccccc1N1CC(O)(c2ccccc2)[N+]2=C1SCC2 (configuration not stated),2.12 µM
9,Cc1ccc(OCC(=O)Nc2ccc(NC(=O)c3cccs3)cc2)c(C)c1,> 10.3 µM (inactive)
10,CCNS(=O)(=O)c1ccc(NC(=O)Nc2ccc3c(c2)OCO3)cc1,9.34 µM
11,CCc1ccc2nc(N(CCCN(C)C)C(=O)c3ccc(S(=O)(=O)N(C)C4CCCCC4)cc3)sc2c1,inactive
12,OCC1(CC2CCCCO2)CCN(Cc2ccccc2-c2ccco2)CC1 (configuration not stated),4.76 µM
13,O=C(c1sc2ccccc2c1Cl)N(Cc1ccco1)C1CCS(=O)(=O)C1 (configuration not stated),inactive
14,CC(=O)Nc1ccc(S(=O)(=O)NC2=C(N3CCN(Cc4ccccc4)CC3)C(=O)c3ccccc3C2=O)cc1,1.38 µM and 1.63 µM
15,COc1ccc(C(C)NCCC(c2ccc(OC(C)C)cc2)c2ccccc2OC)cc1 (configuration not stated),inactive
16,COc1ccc(C(CNC(=O)c2ccc(S(=O)(=O)N(C)C)cc2)N(C)C)cc1 (configuration not stated),4.57 µM
17,CCc1ccc(NC(=O)N(CCCN2CCOCC2)Cc2cccs2)cc1,inactive
18,CCOC(=O)c1c(C)[nH]c(C(=O)OCC(O)=C(C#N)c2nc3ccccc3[nH]2)c1C,> 92.5 µM (inactive)
19,CC1=C/C(=N\OS(=O)(=O)c2ccccc2)C(C)=CC1=O,inactive
20,COc1ccc(C(CNC(=O)/C=C/c2c(Cl)nc3ccccn23)N(C)C)cc1 (configuration not stated),7.62 µM
21,O=S(=O)(c1c(Cl)cc(Br)cc1Cl)N1CCN(C(=S)NC2CC2)CC1,5.98 µM
22,Cc1cc2[nH]c3c4ccccc4nc(C)c3c2cc1C,7.66 µM
23,CN(C)C(CNC(=O)Cc1ccc(Br)cc1)c1ccccc1 (configuration not stated),0.915 µM
24,CN(C)S(=O)(=O)c1ccc(-c2csc(N/N=C/c3ccc(O)cc3)n2)cc1,9.95 µM
25,CN(C(=O)Cc1ccc(Cl)c(Cl)c1)C(CN1CCCC1)c1cccc(OCC(=O)O)c1 (configuration not stated),inactive
26,CCc1ccc(NC(=O)Nc2ccc3c(c2)N(C)C(=O)CS3)cc1,9.42 µM

row,Compound,EC50
1,Cc1ccc(C)c(-n2cc(CNCCc3cnccn3)c(-c3ccccc3)n2)c1,10 µM
2,CC(=O)CSc1ccc(-c2nc3cc(C)c(C)cc3[nH]2)cn1,inactive
3,CCOC(=O)C1(c2ccccc2)CCN(CCC(=O)Nc2cccc(Br)c2)CC1,8.78 µM
4,CN1C2C=C(N(CCc3c[nH]c4ccccc34)C(=O)c3ccc(Cl)cc3)CC1CC2 (configuration not stated),4.76 µM
5,CN(C)CCCN(C(=O)c1ccc(S(=O)(=O)N2CCCCCC2)cc1)c1nc2c(F)cc(F)cc2s1,5.86 µM
6,CCOC(=O)C1(CCOc2ccccc2)CCN(Cc2ccc(C)s2)CC1,inactive
7,OCC1(CCc2ccccc2)CCN(Cc2cccn2-c2cccnc2)CC1,4.69 µM
8,Cc1cccc(OCCC(=O)NCC(c2ccccc2)N(C)C)c1 (configuration not stated),inactive
9,Cc1ccc(C)c(-n2cc(CNC(C)Cn3cncn3)c(-c3ccccc3)n2)c1 (configuration not stated),inactive
10,COc1cccc(C(=O)Nc2ccc3c(c2)C(=O)c2ccccc2C3=O)c1,6.74 µM
11,COCCN(C(=O)C1CC(=O)N(Cc2ccccc2)C1)c1nc(-c2ccc([N+](=O)[O-])cc2)cs1 (configuration not stated),5.6 µM
12,COc1ccc(C(CNC(=O)C(C)c2ccc3cc(OC)ccc3c2)N(C)C)cc1 (configuration not stated),inactive
13,Cc1ccc(CC(=O)NCC(c2ccco2)N(C)C)cc1C (configuration not stated),9.05 µM
14,COc1cc(NC(=O)c2cccc(C)c2)ccc1NC(=O)c1cc2ccccc2o1,inactive
15,CN(C)C(CNC(=O)NC1CCCCC1)c1cccnc1 (configuration not stated),1.27 µM
16,OC(CNCCC(c1ccccc1)c1ccccc1)COc1ccccc1 (configuration not stated),inactive
17,CCc1ccc(Nc2n[n+](-c3ccccc3)c(-c3c(Cl)cccc3Cl)s2)cc1,9.08 µM
18,Cc1nc2nc(C)n(CCN3CCOCC3)c(=O)c2c(-c2cccc([N+](=O)[O-])c2)c1C(=O)CCCCCCCCCCN1CCC(c2ccccc2)(c2ccccc2)CC1,inactive
19,CN(C)C(CNC(=S)Nc1cccc(Cl)c1)c1cccnc1 (configuration not stated),0.408 µM
20,CCN(Cc1ccccc1)S(=O)(=O)c1ccc(C(=O)N(CCCN(C)C)c2nc3c(C)c(C)ccc3s2)cc1,inactive
21,Cc1cc(/C=C2\SC(=Nc3ccccc3)NC2=O)c(C)n1-c1ccc(S(N)(=O)=O)cc1,1.53 µM
22,COC(=O)C1=CO[C@@H](C)[C@@H]2CN(CCc3c[nH]c4ccccc34)CC[C@H]12,4.05 µM
23,COc1cc2c3cc1Oc1cc(ccc1O)C[C@@H]1c4c(cc(OC)c(O)c4Oc4ccc(cc4)C[C@H]3N(C)CC2)CCN1C,inactive
24,COc1ccc(C(CNC(=O)C(Cc2ccccc2)NC(N)=O)N(C)C)cc1 (configuration not stated),inactive
25,Cc1occc1C(=O)N/N=C/c1ccc(-c2ccccc2)cc1,> 92.4 µM (inactive)
26,CCOC(=O)C1(CCc2ccccc2)CCN(Cc2ccc(NC(C)=O)cc2)CC1,0.227 µM

row,Compound,EC50
1,CCCc1nc2c(=O)n(C)c(=O)nc-2n(C)n1,> 92.5 µM (inactive)
2,Cc1ccc(NC(=O)c2ncn(CCCN[C@H](C)c3cccc4ccccc34)n2)cc1C,9.88 µM
3,Nc1nonc1C(=O)NCCNCc1c(OCc2ccccc2F)ccc2ccccc12,inactive
4,CN(C)C(CNC(=O)C1CC(=O)N(Cc2ccccc2)C1)c1ccccc1 (configuration not stated),inactive
5,COC(=O)C1=C(C)N(CCCC(=O)O)C(=O)NC1c1ccccc1OS(=O)(=O)c1ccc([N+](=O)[O-])cc1 (configuration not stated),5.73 µM
6,CCOC(=O)C1(CC2CCCCO2)CCN(Cc2c(C)cc(C)cc2-n2cccn2)CC1 (configuration not stated),0.53 µM
7,CCN1CCN(S(=O)(=O)c2ccc(Cl)c(C(=O)N(CCc3ccccc3)Cc3ccccc3)c2)CC1,inactive
8,CSCCCNC(=O)c1ccc(OC2CCN(CCc3ccccc3)CC2)cc1,inactive
9,COc1ccc(C(CNC(=O)CSc2ccccc2C)N(C)C)cc1 (configuration not stated),4.56 µM
10,COc1ccc(CNCCc2c[nH]c3ccccc23)c(OC)c1C,inactive
11,COc1ccc(C2CC(c3ccc(OC)cc3)n3nc(NC(=O)c4cccs4)nc3N2)cc1 (configuration not stated),inactive
12,CN1CCN(c2ccc(NC(=O)c3ccc(-c4ccccc4F)o3)cc2)CC1,3.26 µM
13,CCOC(=O)C1(CCOc2ccccc2)CCN(Cc2cccn2-c2cccnc2)CC1,1.67 µM
14,CCCCCCCCCCOC(=O)Cn1c(COc2ccccc2C)[n+](C)c2ccccc21,inactive
15,CCOC(=O)C1(CCc2ccccc2)CCN(Cc2ccco2)CC1,inactive
16,COc1cc(C2C(C#N)=C(N)N(c3sc4c(c3C#N)CCCC4)C3=C2C(=O)CC(C)(C)C3)cc(OC)c1OC (configuration not stated),inactive
17,O=c1c2ccc(Cl)cc2[nH]c(=S)n1Cc1cccnc1,8.6 µM
18,Cc1cccc(NC(=S)NCC(c2cccnc2)N(C)C)c1 (configuration not stated),1.02 µM
19,Cc1ccc(CSCC(=O)N/N=C/c2sccc2C)cc1,6.07 µM
20,OCC1(CCc2ccccc2)CCN(Cc2ccccc2Cl)CC1,9.21 µM
21,CN1C(CC(=O)Nc2ccc(Br)cc2)c2ccccc2CC1(C)C (configuration not stated),9.37 µM
22,CCOC(=O)C1(CCCc2ccccc2)CCN(Cc2cnn(C)c2)CC1,4.56 µM
23,CCOC(=O)C1(CC2CCCCO2)CCN(Cc2nc(-c3cccs3)oc2C)CC1 (configuration not stated),inactive
24,Cc1ccc(C2(O)CN(c3ccccc3C)C3=[N+]2CCS3)cc1 (configuration not stated),0.381 µM
25,Cc1ccccc1N(CC(=O)N/N=C/c1ccc(F)cc1)C(=O)c1ccccc1,inactive
26,COc1cc(C(=O)OC(C)C(=O)NCC2CCCCC2)cc(NC(=O)c2ccco2)c1OC (configuration not stated),> 92.5 µM (inactive)

row,Compound,EC50
1,CCC1(C)CC(CCNCc2ccc(N(C)C)cc2)(c2ccc(F)cc2)CCO1 (configuration not stated),2.9 µM
2,O=C(NCCc1ccc(Cl)cc1)C1CCC(CNc2nc(=S)[nH]c3ccccc23)CC1 (configuration not stated),> 92.5 µM (inactive)
3,CN(C)c1ccc(C(CNC(=O)Cc2cccc3ccccc23)N(C)C)cc1 (configuration not stated),inactive
4,Cc1nc(N2CCN(c3ccccn3)CC2)c2c(C)c(C(=O)N3CCN(c4ccc(F)cc4)CC3)sc2n1,2.2 µM
5,Cc1cc(=O)oc2cc(NC(=O)C3COc4ccccc4O3)ccc12 (configuration not stated),inactive
6,CCN(c1nc(N)c(C(=O)N=C(N)N)nc1Cl)C(C)C,9.57 µM
7,CC(C)c1ccc(NC(=O)N(CCc2nc3ccccc3[nH]2)C2CCCC2)cc1,inactive
8,CN(C)C(CNC(=S)Nc1ccccc1)c1cccnc1 (configuration not stated),3.47 µM
9,Cc1ccccc1OCC(O)Cn1c(=N)n(Cc2ccccc2)c2ccccc21 (configuration not stated),inactive
10,COc1ccc(-c2csc(N(CCCN(C)C)C(=O)c3cccs3)n2)cc1,inactive
11,CN1CCN(c2ccc(NC(=O)c3ccc(-c4cccc([N+](=O)[O-])c4)o3)cc2)CC1,inactive
12,O=C(OC1C2CCC1C1CN(CCc3ccccc3)CC12)c1ccccc1 (configuration not stated),inactive
13,CN(C)C(CNC(=O)c1ccc(C(F)(F)F)cc1)c1ccco1 (configuration not stated),7.74 µM
14,COCCCn1c(N)c(-c2nc3ccccc3n2C)c2nc3ccccc3nc21,4.2 µM
15,Cn1c(-c2c(N)n(CCc3ccccc3)c3nc4ccccc4nc23)nc2ccccc21,3.15 µM
16,COC(=O)c1cc2c(n1S(=O)(=O)c1ccc(C)cc1)C(=O)C(=O)c1[nH]cc(C(=O)OCc3ccccc3)c1-2,2.56 µM
17,CN(C)CCCN(C(=O)c1ccc(S(=O)(=O)N2CCc3ccccc3C2)cc1)c1nc2c(F)cc(F)cc2s1,0.856 µM
18,CN(C)C(CNC(=O)c1cnc(Cl)c(Cl)c1)c1ccccc1 (configuration not stated),0.555 µM
19,COc1ccc(CN2CCc3c([nH]c4ccccc34)C2)c(OC)c1C,inactive
20,CN(C)C(CNC(=O)c1ccc2ccccc2c1)c1ccco1 (configuration not stated),inactive
21,Cc1ccc2cc(C(c3nnnn3Cc3ccccc3)N3CCc4ccccc43)c(=O)[nH]c2c1 (configuration not stated),inactive
22,COCC1CCN(Cc2cn(-c3ccccc3F)nc2-c2cc(C)sc2C)CC1,inactive
23,Brc1ccc(NC2=Nc3ccccc3CC2)cc1,inactive
24,COc1ccc(C2Nc3ccccc3C(=O)N2c2ccc(F)cc2)cc1CSc1ccccn1 (configuration not stated),inactive
